From ChEMBL document CHEMBL1201862, “PubChem BioAssay data set” (2004)
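Five compound concentrations were applied to cells in 96-well plates for 48 hours; endpoints were derived by simple linear interpolation of the resulting dose-response curve. The concentration for 50% growth inhibition is given as GI50.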 Active and inactive are the calls of the source. Cut-off read from the data, not from the text of the source: active = GI50 up to about 1.1 µM and inactive = higher.

How the values were obtained:
Experiment in all cases: NCI-60 cell line screen, 48 h
MOLT-4 = tested on: MOLT-4
UACC-62 = tested on: UACC-62
HCC 2998 = tested on: HCC 2998
OVCAR-5 = tested on: OVCAR-5
HCT-15 = tested on: HCT-15
UACC-257 = tested on: UACC-257
KM12 = tested on: KM12
SNB-78 = tested on: SNB-78
NCI-H522 = tested on: NCI-H522
HT-29 = tested on: HT-29
NCI-H23 = tested on: NCI-H23
SR = tested on: SR
HOP-18 = tested on: HOP-18
SK-MEL-2 = tested on: SK-MEL-2
OVCAR-8 = tested on: OVCAR-8
RXF 393 = tested on: RXF 393
HL-60 = tested on: HL-60
SN12C = tested on: SN12C
CCRF-CEM = tested on: CCRF-CEM
UO-31 = tested on: UO-31
SK-OV-3 = tested on: SK-OV-3
Malme-3M = tested on: Malme-3M
SK-MEL-28 = tested on: SK-MEL-28
ACHN = tested on: ACHN
EKVX = tested on: EKVX
DLD-1 = tested on: DLD-1
LXFL 529 = tested on: LXFL 529
786-0 = tested on: 786-0
HOP-62 = tested on: HOP-62
K562 = tested on: K562
SK-MEL-5 = tested on: SK-MEL-5
M19-MEL = tested on: M19-MEL
NCI-H460 = tested on: NCI-H460
IGROV-1 = tested on: IGROV-1
KM-20L2 = tested on: KM-20L2
LOX IMVI = tested on: LOX IMVI
SW-620 = tested on: SW-620
HCT-116 = tested on: HCT-116
SF-295 = tested on: SF-295
M14 = tested on: M14
U-251 = tested on: U-251
SF-539 = tested on: SF-539
A549 = tested on: A549
OVCAR-3 = tested on: OVCAR-3
TK-10 = tested on: TK-10
SNB-75 = tested on: SNB-75

For `COC1CC(OC)C2OC(c3ccccc3)OCC2O1` (stereo unspecified), the GI50 (MOLT-4) was > 100 µM (inactive), the GI50 (UACC-62) was > 100 µM (inactive) and the GI50 (HCC 2998) was > 100 µM (inactive). For the same molecule, the GI50 (OVCAR-5) was > 100 µM (inactive), the GI50 (HCT-15) was over 100 µM and the GI50 (UACC-257) was > 100 µM (inactive). For the same molecule, the GI50 (KM12) was > 100 µM (inactive), the GI50 (SNB-78) was > 100 µM (inactive) and the GI50 (NCI-H522) was > 100 µM (inactive). The GI50 (HT-29) was > 100 µM (inactive), the GI50 (NCI-H23) was > 100 µM (inactive) and the GI50 (SR) was > 100 µM (inactive). For the same molecule, the GI50 (HOP-18) was > 100 µM (inactive), the GI50 (SK-MEL-2) was > 100 µM (inactive) and the GI50 (OVCAR-8) was > 100 µM (inactive). For the same molecule, the GI50 (RXF 393) was > 100 µM (inactive), the GI50 (HL-60) was > 100 µM (inactive) and the GI50 (SN12C) was > 100 µM (inactive). For the same molecule, the GI50 (CCRF-CEM) was > 100 µM (inactive), the GI50 (UO-31) was > 100 µM (inactive) and the GI50 (SK-OV-3) was > 100 µM (inactive). The GI50 (Malme-3M) was > 100 µM (inactive), the GI50 (SK-MEL-28) was > 100 µM (inactive) and the GI50 (ACHN) was > 100 µM (inactive). For the same molecule, the GI50 (EKVX) was > 100 µM (inactive), the GI50 (DLD-1) was > 100 µM (inactive) and the GI50 (LXFL 529) was > 100 µM (inactive). For the same molecule, the GI50 (786-0) was > 100 µM (inactive), the GI50 (HOP-62) was > 100 µM (inactive) and the GI50 (K562) was > 100 µM (inactive). For the same molecule, the GI50 (SK-MEL-5) was > 100 µM (inactive), the GI50 (M19-MEL) was > 100 µM (inactive) and the GI50 (NCI-H460) was > 100 µM (inactive). The GI50 (IGROV-1) was > 100 µM (inactive), the GI50 (KM-20L2) was > 100 µM (inactive) and the GI50 (LOX IMVI) was > 100 µM (inactive). For the same molecule, the GI50 (SW-620) was > 100 µM (inactive), the GI50 (HCT-116) was > 100 µM (inactive) and the GI50 (SF-295) was > 100 µM (inactive). The GI50 (M14) was > 100 µM (inactive), the GI50 (U-251) was > 100 µM (inactive) and the GI50 (SF-539) was > 100 µM (inactive). The GI50 (A549) was > 100 µM (inactive), the GI50 (OVCAR-3) was > 100 µM (inactive) and the GI50 (TK-10) was > 100 µM (inactive). For the same molecule, the GI50 (SNB-75) was > 100 µM (inactive).
